Experimental data from US8530460B2, “Azetidine derivatives” (Boehringer Ingelheim International GmbH, priority 2011, dated 2013).

The compounds below were run against human ACC2 (Homo sapiens (Human), UniProt O00763) (assay: ACC2 assay (spectrophotometric 384 well assay, NADH-linked coupled lactate dehydrogenase/pyruvate kinase)). Settings: hACC2 construct lacking 128 N-terminal amino acids; 25° C., 340 nm, 15 minutes.
Assay type: biochemical
Method: Spectrophotometric 384 Well Assay
Malonyl CoA formation by acetyl CoA carboxylases is stoichometrically linked to the consumption of ATP. ACC2 activity is measured in a NADH-linked kinetic method measuring ADP generated during the ACC reaction using a coupled lactate dehydrogenase/pyruvate kinase reaction.
For biological testing, a human ACC2 construct which lacks the 128 amino acids at the N-terminus for increased solubility (nt 385-6966 in Genbank entry AJ575592) is cloned. The protein is then expressed in insect cells using a baculoviral expression system. Protein purification is performed by anion exchange.
All compounds are dissolved in dimethyl sulfoxide (DMSO) to a concentration of 10 mM.
Assay reactions are then carried out in 384-well plates, with hACC2 in an appropriate dilution and at final assay concentrations (f.c.) of 100 mM Tris (pH 7.5), 10 mM trisodium citrate, 25 mM KHCO3, 10 mM MgCl2, 0.5 mg/ml BSA, 3.75 mM reduced L-glutathione, 15 U/ml lactate dehydrogenase, 0.5 mM phosphoenolpyruvate, 15 U/ml pyruvate kinase, compounds at different concentrations at final DMSO concentrations of 1%.
The enzymatic reaction is then started by addition of a mixture of NADH, acetyl Coenzyme A (both 200 μM f.c.) and ATP (500 uM f.c.). The decrease of the optical density (slope S) is then determined at 25° C. at a wavelength of 340 nm over 15 minutes in a spectrophotometric reader.
Each assay microtiter plate contains wells with vehicle instead of compound as controls for the non-inhibited enzyme (100% CTL; ‘HIGH’) and wells without acetyl-CoA as controls for non-specific NADH degradation (0% CTL; ‘LOW’).
The slope S is used for calculation of % CTL=(S(compound)−S(‘LOW’))/(S(‘HIGH’)—S(‘LOW’))*100. Compounds will give values between 100% CTL (no inhibition) and 0% CTL (complete inhibition).
For IC50 value determination, the sample slope in the presence of the test compound after subtraction of the low controls (S(compound)−S(‘LOW’)) are used.
An IC50 value is derived from the compound slopes at different dosages after subtraction of the low controls (S(compound)−S(‘LOW’)) by non-linear regression curve fitting (equation y=(A+((B−A)/(1+((C/x)^D))))).

Chain of human ACC2 (O00763 129-2458): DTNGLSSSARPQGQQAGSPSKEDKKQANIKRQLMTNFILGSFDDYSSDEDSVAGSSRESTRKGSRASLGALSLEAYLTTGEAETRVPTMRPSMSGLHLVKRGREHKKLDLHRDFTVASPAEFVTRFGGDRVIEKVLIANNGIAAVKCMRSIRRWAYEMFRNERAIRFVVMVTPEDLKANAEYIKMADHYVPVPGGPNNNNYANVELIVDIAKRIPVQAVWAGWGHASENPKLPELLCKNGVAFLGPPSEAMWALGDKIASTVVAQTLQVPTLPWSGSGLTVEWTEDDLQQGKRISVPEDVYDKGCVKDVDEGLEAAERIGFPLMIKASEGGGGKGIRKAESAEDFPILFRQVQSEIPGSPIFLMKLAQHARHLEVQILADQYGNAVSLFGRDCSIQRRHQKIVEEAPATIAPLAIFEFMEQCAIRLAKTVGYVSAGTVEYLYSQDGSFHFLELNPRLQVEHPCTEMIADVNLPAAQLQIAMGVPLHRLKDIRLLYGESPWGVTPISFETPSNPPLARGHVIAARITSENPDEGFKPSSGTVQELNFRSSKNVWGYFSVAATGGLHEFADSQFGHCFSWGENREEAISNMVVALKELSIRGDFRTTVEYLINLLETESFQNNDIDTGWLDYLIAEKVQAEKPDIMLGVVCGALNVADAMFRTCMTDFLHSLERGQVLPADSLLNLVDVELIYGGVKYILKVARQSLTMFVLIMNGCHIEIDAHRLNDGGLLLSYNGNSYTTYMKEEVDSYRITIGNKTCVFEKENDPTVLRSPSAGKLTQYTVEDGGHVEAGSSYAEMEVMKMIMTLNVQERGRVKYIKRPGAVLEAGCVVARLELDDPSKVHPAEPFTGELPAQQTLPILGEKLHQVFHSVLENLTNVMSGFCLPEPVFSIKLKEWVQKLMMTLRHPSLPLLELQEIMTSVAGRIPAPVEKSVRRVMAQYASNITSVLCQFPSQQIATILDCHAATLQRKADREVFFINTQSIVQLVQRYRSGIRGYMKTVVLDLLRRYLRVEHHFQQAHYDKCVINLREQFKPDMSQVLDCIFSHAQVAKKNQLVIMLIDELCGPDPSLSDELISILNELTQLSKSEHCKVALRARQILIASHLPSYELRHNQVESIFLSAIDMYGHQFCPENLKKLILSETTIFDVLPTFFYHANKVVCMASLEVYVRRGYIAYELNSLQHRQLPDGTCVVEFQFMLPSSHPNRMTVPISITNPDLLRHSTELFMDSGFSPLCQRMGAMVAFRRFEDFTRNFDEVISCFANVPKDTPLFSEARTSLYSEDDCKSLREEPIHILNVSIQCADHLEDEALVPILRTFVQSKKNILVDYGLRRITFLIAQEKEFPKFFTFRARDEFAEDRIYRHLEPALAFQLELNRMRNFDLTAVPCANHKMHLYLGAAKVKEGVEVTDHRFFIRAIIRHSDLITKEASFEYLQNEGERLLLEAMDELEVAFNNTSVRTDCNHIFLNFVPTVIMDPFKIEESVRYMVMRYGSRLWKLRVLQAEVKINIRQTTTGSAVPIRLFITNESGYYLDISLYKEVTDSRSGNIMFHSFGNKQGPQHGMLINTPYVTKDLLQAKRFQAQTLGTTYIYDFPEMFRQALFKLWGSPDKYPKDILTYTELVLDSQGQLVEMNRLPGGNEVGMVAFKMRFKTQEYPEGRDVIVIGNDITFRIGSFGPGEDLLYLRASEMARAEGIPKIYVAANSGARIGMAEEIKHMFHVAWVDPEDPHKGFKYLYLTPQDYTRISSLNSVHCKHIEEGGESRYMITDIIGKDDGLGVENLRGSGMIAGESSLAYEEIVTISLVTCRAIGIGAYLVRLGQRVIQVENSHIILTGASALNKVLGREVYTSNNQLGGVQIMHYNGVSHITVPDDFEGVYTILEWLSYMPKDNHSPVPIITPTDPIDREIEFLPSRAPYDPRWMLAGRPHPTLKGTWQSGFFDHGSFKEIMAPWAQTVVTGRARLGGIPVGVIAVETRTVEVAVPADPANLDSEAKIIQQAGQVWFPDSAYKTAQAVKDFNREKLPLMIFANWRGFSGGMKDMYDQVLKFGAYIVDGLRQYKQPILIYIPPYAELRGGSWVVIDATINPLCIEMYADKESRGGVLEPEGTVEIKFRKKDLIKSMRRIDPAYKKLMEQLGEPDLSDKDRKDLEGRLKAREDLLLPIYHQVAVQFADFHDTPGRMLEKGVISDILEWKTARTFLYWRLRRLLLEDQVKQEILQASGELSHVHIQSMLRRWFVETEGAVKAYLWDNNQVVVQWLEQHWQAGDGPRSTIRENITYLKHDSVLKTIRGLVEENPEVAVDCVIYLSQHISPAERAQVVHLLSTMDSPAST

Compound | IC50 [µM]
CC(=O)N[C@@H](C)c1ccc(OC2CN(c3ccnc(N(C)CC4CC4)n3)C2)cc1 [Example 12.2] | 0.7
CCCOc1ccc(N2CC(Oc3ccc([C@H](C)NC(C)=O)cc3)C2)c(OC)c1 [Example 1.21] | 0.19
CCOc1ccc(N2CC(Oc3ccc([C@H](C)NC(=O)c4cccnc4)cc3)C2)cc1 [Example 8.45] | 2.31
CCOc1ccc(N2CC(Oc3ccc([C@H](C)NC(=O)c4cncs4)cc3)C2)cc1 [Example 8.41] | 0.51
CCOc1ccc(N2CC(Oc3ccc([C@H](C)NC(=O)CN(C)C)cc3)C2)cc1 [Example 8.23] | 5.79
C[C@H](NC(=O)N(C)C)c1ccc(OC2CN(c3ccc(OC4CC4)cc3)C2)cc1 [Example 1.32] | 0.19
C[C@H](NC(=O)C1CC1)c1ccc(OC2CN(c3ncc(C4CC4)cn3)C2)cc1 [Example 3.5] | 0.2
CCOc1ccc(N2CC(Oc3ccc([C@H](C)NC(C)=O)cc3)C2)c(C#N)n1 [Example 1.58] | 1.39
CC(=O)N[C@@H](C)c1ccc(OC2CN(c3cc4c(cc3F)OCCCO4)C2)cc1 [Example 1.53] | 0.76
CC(=O)N[C@@H](C)c1ccc(OC2CN(c3ccc(Br)cn3)C2)cc1 [Example 4.17] | 0.29
CC(=O)N[C@@H](C)c1ccc(OC2CN(c3ccc(OCC4CC4)cc3)C2)cc1 [Example 1.14] | 0.07
CCOc1ccc(N2CC(Oc3ccc([C@H](C)NC(=O)COC)cc3)C2)cc1 [Example 8.47] | 1.91
CCOc1ccc(N2CC(Oc3ccc(C(C)NC(C)=O)cc3)C2)cc1 (stereo not shown) [Example 1.5] | 0.2
CCCOc1ccc(N2CC(Oc3ccc([C@H](C)NC(C)=O)cc3)C2)c(C)c1 [Example 2.5] | 0.17
CC(=O)NC(C)c1ccc(OC2CN(c3ccc(OCC4CC4)cc3)C2)c(F)c1 (stereo not shown) [Example 13, N-(1-(4-(1-(4-(cyclopropylmethoxy)phenyl)azetidin-3-yloxy)-3-fluorophenyl)ethyl)-acetamide] | 0.1
CCNC(=O)N[C@@H](C)c1ccc(OC2CN(c3ccc(OCC)cc3)C2)cc1 [Example 10.4] | 0.44
CC(=O)N[C@@H](C)c1ccc(OC2CN(c3ccc(OC4CC4)cc3C)C2)cc1 [Example 1.44] | 0.25
COc1cc(OC2CC2)ccc1N1CC(Oc2ccc([C@H](C)NC(C)=O)cc2)C1 [Example 1.43] | 1.29
CCOc1ccc(N2CC(Oc3ccc([C@H](C)NC(=O)CC4CC4)cc3)C2)cc1 [Example 8.15] | 1.74
CCOc1ccc(N2CC(Oc3ccc([C@H](C)NC(=O)C4CCC4)cc3)C2)cc1 [Example 8.20] | 0.48
CC(=O)N[C@@H](C)c1ccc(OC2CN(c3ccc(F)c(C(F)(F)F)n3)C2)cc1 [Example 4.37] | 0.29
CCCOc1ccc(N2CC(Oc3ccc(C(C)NC(C)=O)cc3)C2)cn1 (stereo not shown) [Example 1.9] | 0.56
CC(=O)N[C@@H](C)c1ccc(OC2CN(c3cc(N(C)CC4CC4)ncn3)C2)cc1 [Example 12.1] | 4.12

Compound | IC50 [µM]
CCOc1ccc(N2CC(Oc3ccc([C@H](C)NC(=O)Cc4cccnc4)cc3)C2)cc1 [Example 8.24] | 3.94
CCOc1cc(N2CC(Oc3ccc([C@H](C)NC(C)=O)cc3)C2)ncn1 [Example 11.3] | 11.8
CC(=O)N[C@@H](C)c1ccc(OC2CN(c3cnc4ccccc4n3)C2)cc1 [Example 4.28] | 0.36
CC(=O)N[C@@H](C)c1ccc(OC2CN(c3ncc4nc(-c5ccccc5)oc4n3)C2)cc1 [Example 4.23] | 1.18
CC(=O)N[C@@H](C)c1ccc(OC2CN(c3ccc(Br)c(C#N)n3)C2)cc1 [Example 4.35] | 1.11
CCOc1ccc(N2CC(Oc3ccc([C@H](C)NC(=O)C4CC(F)C4)cc3)C2)cc1 (stereo partly shown) [Example 8.19] | 0.69
CC(=O)N[C@@H](C)c1ccc(OC2CN(c3ccc(OCC4CC4(F)F)cc3F)C2)cc1 (stereo partly shown) [Example 1.54] | 0.04
CC(=O)N[C@@H](C)c1ccc(OC2CN(c3ccc(OCC4CC4)nc3C#N)C2)cc1 [Example 1.60] | 0.65
CC(=O)N[C@@H](C)c1ccc(OC2CN(c3ncc(OCC4CC4(F)F)cn3)C2)cc1 (stereo partly shown) [Example 4.42] | 0.53
CCOc1cc(N2CC(Oc3ccc([C@H](C)NC(C)=O)cc3)C2)c(F)cn1 [Example 1.62] | 2.91
CC(=O)N[C@@H](C)c1ccc(OC2CN(c3ccc4oc(-c5ccccc5)nc4c3)C2)cc1 [Example 1.28] | 1.62
CCOc1ccc(N2CC(Oc3ccc([C@H](C)NC(=O)C4(C(F)(F)F)CC4)cc3)C2)cc1 [Example 8.21] | 0.3
CCCOc1ccc(N2CC(Oc3ccc([C@H](C)NC(=O)CF)cc3)C2)c(OC)c1 [Example 8.2] | 2.37
CC(=O)N[C@@H](C)c1ccc(OC2CN(c3cc(OCC4CC4)ncn3)C2)cc1 [Example 11.4] | 2.39
CC(=O)N[C@@H](C)c1ccc(OC2CN(c3ccc(Cl)c(C(F)(F)F)n3)C2)cc1 [Example 4.32] | 0.1
CC(=O)N[C@@H](C)c1ccc(OC2CN(c3cnc(NC4CCC4)nc3)C2)cc1 [Example 1.15] | 0.18
CCCOc1ccc(N2CC(Oc3ccc([C@H](C)NC(=O)c4cn[nH]c4)cc3)C2)c(OC)c1 [Example 8.3] | 1.09
CCOc1ccc(N2CC(Oc3ccc([C@H](C)NC(=O)c4cnc(NC(=O)CO)s4)cc3)C2)cc1 [Example 8.10] | 0.37
CC(=O)NC(C)c1ccc(OC2CN(c3ncc(Br)cn3)C2)cc1 (stereo not shown) [Example 1.8] | 0.55
CCOc1ccc(N2CC(Oc3ccc([C@H](C)NC(C)=O)cc3)C2)c(F)c1 [Example 2.3] | 0.24
COc1ccc(N2CC(Oc3ccc([C@H](C)NC(C)=O)cc3)C2)c(C#N)c1 [Example 1.22] | 1.18
COc1cc(OC2CCC2)ccc1N1CC(Oc2ccc([C@H](C)NC(C)=O)cc2)C1 [Example 1.20] | 0.49
CCOc1ccc(N2CC(Oc3ccc([C@H](C)NC(=O)c4nc(C)sc4C)cc3)C2)cc1 [Example 8.22] | 1.87

Compound | IC50 [µM]
CCOC(=O)c1cnc(N2CC(Oc3ccc([C@H](C)NC(C)=O)cc3)C2)nc1C(F)(F)F [Example 4.33] | 1.73
CCOc1ccc(N2CC(Oc3ccc([C@H](C)NC(=O)C4(C#N)CC4)cc3)C2)cc1 [Example 8.12] | 1
C[C@H](NC(=O)C1CC1)c1ccc(OC2CN(c3ccc(OCC4CC4)cc3)C2)cc1 [Example 1.40] | 1.03
CC(=O)N[C@@H](C)c1ccc(OC2CN(c3ccc(OC4CC4)cc3F)C2)cc1 [Example 1.55] | 0.11
CCOc1ccc(N2CC(Oc3ccc([C@H](C)NC(=O)C4CC(C)C4)cc3)C2)cc1 (stereo partly shown) [Example 8.27] | 0.76
CCOc1ccc(N2CC(Oc3ccc([C@H](C)NC(=O)c4ccno4)cc3)C2)cc1 [Example 8.31] | 1.09
CCCc1cnc(N2CC(Oc3ccc(C(C)NC(C)=O)cc3)C2)nc1 (stereo not shown) [Example 3.3] | 0.32
CC(=O)N[C@@H](C)c1ccc(OC2CN(c3cccc(OCC(C)C)c3)C2)cc1 [Example 1.49] | 1.13
CC(=O)N[C@@H](C)c1ccc(OC2CN(c3ncc4nc(-c5ccsc5)oc4n3)C2)cc1 [Example 4.26] | 13.3
CCCOc1ccc(N2CC(Oc3ccc([C@H](C)NC(=O)c4cncs4)cc3)C2)c(OC)c1 [Example 8.4] | 0.43
CCOc1ccc(N2CC(Oc3ccc([C@H](C)NC(=O)C4CNC(=O)C4)cc3)C2)cc1 (stereo partly shown) [Example 8.39] | 5.2
CC(=O)N[C@@H](C)c1ccc(OC2CN(c3nccc(C(F)(F)F)c3F)C2)cc1 [Example 4.10] | 0.37
CCCOc1ccc(N2CC(Oc3ccc([C@H](C)NC(C)=O)cc3)C2)cc1 [Example 1.13] | 0.07
CC(=O)N[C@@H](C)c1ccc(OC2CN(c3ccc(OCC4CC4)cc3F)C2)cc1 [Example 2.2] | 0.06
CC(=O)N[C@@H](C)c1ccc(OC2CN(c3ccc(OC4CCC4)cc3C#N)C2)cc1 [Example 1.46] | 0.17
CC(=O)N[C@@H](C)c1ccc(OC2CN(c3nc4ccccc4s3)C2)cc1 [Example 4.13] | 0.25
CCCOc1ccc(N2CC(Oc3ccc([C@H](C)NC(=O)C4CC4)cc3)C2)cc1 [Example 1.35] | 0.06
CC(=O)NC(C)c1ccc(OC2CN(c3ccc4c(c3)OCCO4)C2)cc1 (stereo not shown) [Example 1.2] | 0.24
CC(=O)N[C@@H](C)c1ccc(OC2CN(c3cc(C(F)(F)F)cc(C)n3)C2)cc1 [Example 4.4] | 3.99
COc1cnc(N2CC(Oc3ccc([C@H](C)NC(C)=O)cc3)C2)nc1 [Example 3.2] | 1.12
CCOc1cccc(N2CC(Oc3ccc([C@H](C)NC(C)=O)cc3)C2)c1 [Example 1.30] | 0.67
